Test results: the NIST ThermoML archive (doi:10.1021/acs.jced.5b00181)

Experiment: xn = mol fraction of the nth substance listed
Settings: 101 kPa, Liquid; for viscosity: Falling or rolling sphere viscometry; for speed of sound: Frequency=3 MHz, Sing-around technique in a fixed-path interferometer; for mass density: Vibrating tube method

CCCCCC[n+]1ccn(C)c1.O=S(=O)([N-]S(=O)(=O)C(F)(F)F)C(F)(F)F + CCCO
Settings	mass density [kg/m3]	speed of sound [m/s]	viscosity [mPa·s]
278.15 K, x1 = 0.048	920.02	1255.6	4.973
278.15 K, x1 = 0.0991	1003.18	1246.2	7.263
278.15 K, x1 = 0.1928	1109.95	1243.7	13.14
278.15 K, x1 = 0.2895	1184.1	1246.9	20.71
278.15 K, x1 = 0.3911	1239.44	1252	30.93
278.15 K, x1 = 0.4877	1278.76	1256.3	44.03
278.15 K, x1 = 0.6028	1314.62	1261.3	63.47
278.15 K, x1 = 0.6999	1338.53	1265.1	87.45
278.15 K, x1 = 0.8016	1359.18	1268.5	117.11
278.15 K, x1 = 0.8999	1375.88	1271.5	155.87
298.15 K, x1 = 0.048	903.08	1191.5	2.872
298.15 K, x1 = 0.0991	985.65	1186	3.917
298.15 K, x1 = 0.1928	1091.69	1187.7	6.538
298.15 K, x1 = 0.2895	1165.51	1193.5	9.707
298.15 K, x1 = 0.3911	1220.7	1200.4	13.78
298.15 K, x1 = 0.4877	1259.96	1205.8	18.59
298.15 K, x1 = 0.6028	1295.83	1211.8	25.71
298.15 K, x1 = 0.6999	1319.79	1216.2	33.17
298.15 K, x1 = 0.8016	1340.46	1220.1	42.83
298.15 K, x1 = 0.8999	1357.18	1223.3	54.58
318.15 K, x1 = 0.048	885.86	1129.7	1.799
318.15 K, x1 = 0.0991	967.85	1128.2	2.374
318.15 K, x1 = 0.1928	1073.33	1134	3.734
318.15 K, x1 = 0.2895	1146.9	1142.4	5.367
318.15 K, x1 = 0.3911	1202.04	1151	7.383
318.15 K, x1 = 0.4877	1241.33	1157.7	9.855
318.15 K, x1 = 0.6028	1277.27	1164.8	13.26
318.15 K, x1 = 0.6999	1301.3	1169.8	16.47
318.15 K, x1 = 0.8016	1322.04	1174.3	20.58
318.15 K, x1 = 0.8999	1338.82	1178.1	25.19
338.15 K, x1 = 0.048	868.04	1069.2	1.203
338.15 K, x1 = 0.0991	949.6	1071.6	1.565
338.15 K, x1 = 0.1928	1054.71	1081.8	2.399
338.15 K, x1 = 0.2895	1128.21	1092.8	3.401
338.15 K, x1 = 0.3911	1183.4	1103.3	4.568
338.15 K, x1 = 0.4877	1222.81	1111.4	5.928
338.15 K, x1 = 0.6028	1258.9	1119.7	7.803
338.15 K, x1 = 0.6999	1283.03	1125.6	9.596
338.15 K, x1 = 0.8016	1303.87	1130.8	11.71
338.15 K, x1 = 0.8999	1320.72	1135.3	13.92

CCCC[n+]1ccn(C)c1.O=S(=O)([N-]S(=O)(=O)C(F)(F)F)C(F)(F)F + CCCO
Settings	mass density [kg/m3]	speed of sound [m/s]	viscosity [mPa·s]
278.15 K, x1 = 0.0508	926.62	1252.2	4.722
278.15 K, x1 = 0.0949	1002.03	1241	6.623
278.15 K, x1 = 0.1989	1130.78	1235.7	11.44
278.15 K, x1 = 0.2976	1214	1239.7	16.84
278.15 K, x1 = 0.3912	1272.23	1245.7	22.98
278.15 K, x1 = 0.4852	1317.37	1250.9	31.14
278.15 K, x1 = 0.5929	1358.04	1256.8	42.15
278.15 K, x1 = 0.692	1388.04	1261.7	56.15
278.15 K, x1 = 0.7968	1414.14	1266.2	76.57
278.15 K, x1 = 0.903	1436.28	1270.3	102.44
298.15 K, x1 = 0.0508	909.64	1188.9	2.701
298.15 K, x1 = 0.0949	984.4	1181.4	3.573
298.15 K, x1 = 0.1989	1112.17	1180.9	5.908
298.15 K, x1 = 0.2976	1194.92	1187.6	8.374
298.15 K, x1 = 0.3912	1252.93	1195.6	10.88
298.15 K, x1 = 0.4852	1297.96	1201.7	14.14
298.15 K, x1 = 0.5929	1338.58	1208.6	18.55
298.15 K, x1 = 0.692	1368.59	1214.5	23.83
298.15 K, x1 = 0.7968	1394.7	1219.5	30.51
298.15 K, x1 = 0.903	1416.85	1224	39.95
318.15 K, x1 = 0.0508	892.29	1127.5	1.693
318.15 K, x1 = 0.0949	966.47	1123.7	2.187
318.15 K, x1 = 0.1989	1093.43	1128.2	3.491
318.15 K, x1 = 0.2976	1175.83	1137.6	4.677
318.15 K, x1 = 0.3912	1233.7	1147.2	6.173
318.15 K, x1 = 0.4852	1278.71	1154.6	7.805
318.15 K, x1 = 0.5929	1319.36	1162.5	10.1
318.15 K, x1 = 0.692	1349.4	1169.2	12.76
318.15 K, x1 = 0.7968	1375.56	1174.9	15.78
318.15 K, x1 = 0.903	1397.74	1180.1	19.35
338.15 K, x1 = 0.0508	874.3	–	1.136
338.15 K, x1 = 0.0519	–	1066.7	–
338.15 K, x1 = 0.0949	948.03	–	1.457
338.15 K, x1 = 0.1037	–	1066.7	–
338.15 K, x1 = 0.1989	1074.44	–	2.303
338.15 K, x1 = 0.2013	–	1076.8	–
338.15 K, x1 = 0.2976	1156.66	–	3.004
338.15 K, x1 = 0.3088	–	1089	–
338.15 K, x1 = 0.3912	1214.5	–	3.93
338.15 K, x1 = 0.3963	–	1100	–
338.15 K, x1 = 0.4852	1259.59	–	4.908
338.15 K, x1 = 0.4918	–	1109.1	–
338.15 K, x1 = 0.5723	–	1118.3	–
338.15 K, x1 = 0.5929	1300.32	–	6.258
338.15 K, x1 = 0.692	1330.43	–	7.446
338.15 K, x1 = 0.7026	–	1125.4	–
338.15 K, x1 = 0.7968	1356.65	–	9.633
338.15 K, x1 = 0.8055	–	1132	–
338.15 K, x1 = 0.9025	–	1137.8	–
338.15 K, x1 = 0.903	1378.89	–	11.48

CCn1cc[n+](C)c1.O=S(=O)([N-]S(=O)(=O)C(F)(F)F)C(F)(F)F + CCCO
Settings	mass density [kg/m3]	speed of sound [m/s]	viscosity [mPa·s]
278.15 K, x1 = 0.4918	1372.4	1253.1	20.94
278.15 K, x1 = 0.5723	1410.18	1259.6	25.39
278.15 K, x1 = 0.7026	1459.58	1268.7	34.81
278.15 K, x1 = 0.8055	1491.11	1274.9	44.9
278.15 K, x1 = 0.9025	1516.35	1280	56.99
298.15 K, x1 = 0.0519	914.24	1184.8	2.639
298.15 K, x1 = 0.1037	1005.11	1175.1	3.53
298.15 K, x1 = 0.2013	1134.16	1175.8	5.134
298.15 K, x1 = 0.3088	1235.5	1186.2	6.891
298.15 K, x1 = 0.3963	1297.78	1195.6	8.358
298.15 K, x1 = 0.4918	1352.18	1205	10.6
298.15 K, x1 = 0.5723	1389.87	1212.2	12.63
298.15 K, x1 = 0.7026	1439.2	1222.2	16.89
298.15 K, x1 = 0.8055	1470.7	1228.9	21.07
298.15 K, x1 = 0.9025	1495.92	1234.3	25.97
318.15 K, x1 = 0.0519	896.79	1124.1	1.656
318.15 K, x1 = 0.1037	986.91	1119.3	2.083
318.15 K, x1 = 0.2013	1115.01	1124.8	2.938
318.15 K, x1 = 0.3088	1215.8	1137.8	3.978
318.15 K, x1 = 0.3963	1277.87	1148.3	4.994
318.15 K, x1 = 0.4918	1332.15	1158.9	6.245
318.15 K, x1 = 0.5723	1369.81	1166.8	7.454
318.15 K, x1 = 0.7026	1419.12	1177.7	9.792
318.15 K, x1 = 0.8055	1450.62	1185	11.97
318.15 K, x1 = 0.9025	1475.84	1191	14.58
338.15 K, x1 = 0.0519	878.72	1064.4	1.117
338.15 K, x1 = 0.1037	968.2	1064.1	1.389
338.15 K, x1 = 0.2013	1095.6	1074.6	1.956
338.15 K, x1 = 0.3088	1196.06	1090.4	2.656
338.15 K, x1 = 0.3963	1258.02	1102.6	3.333
338.15 K, x1 = 0.4918	1312.29	1114.4	4.156
338.15 K, x1 = 0.5723	1349.96	1123.2	4.931
338.15 K, x1 = 0.7026	1399.28	1135.3	6.395
338.15 K, x1 = 0.8055	1430.83	1143.2	7.634
338.15 K, x1 = 0.9025	1456.06	1149.7	9.201
